Test results taken from US9597407B2, “Targeted antimicrobial moieties” (C3 Jian, Inc., priority 2009, dated 2017).
Ends that are not written are not given here.

Columns and labels:
microorganisms [1] = assay: Morphology, biofilm and growth disruption by peptides (Table 5); format: cell-based; set-up: key: A: Peptide aggregates; B: Less hyphal formation; Clumps; Diffuse clumps and small polyps; F: Diffuse growth; H: Thin; I: Growth inhibition; Microcolony formation; Rippled; Small polyps; Thick; W: Halo formation on top, microlonies on bottom
Source text: In certain embodiments peptides that induce alterations in phenotype or other biological activities can also be used as antimicrobial effector moieties.

microorganisms [2] = assay: Peptide activities: binding, antimicrobial, growth or phenotype altering (Table 8)
Source text: In certain embodiments, peptides described herein can have multiple activities. Thus for example, a peptide can have both binding/targeting activity and antimicrobial activity. Such peptides can be used, e.g., in a chimeric construct, for any or all of these properties. Thus, for example, a peptide designated “B” in Table 8 can be used as a targeting peptide. If it is also designated G or M it can also be used for antimicrobial activity.

Substance | Organism, effect (morphology, biofilm and growth disruption) (microorganisms [1]; E. coli) | Organism, effect (morphology, biofilm and growth disruption) (microorganisms [1]; MRSA) | Organism, effect (morphology, biofilm and growth disruption) (microorganisms [1]; S. epidermidis) | Organism, effect (morphology, biofilm and growth disruption) (microorganisms [1]; S. pneumoniae) | Activities (microorganisms [2]) | Organism, effect (microorganisms [1]; MRSA) | Organism, effect (microorganisms [1]; S. epidermidis) | also measured
PF-578 (QKANLRIGFTYTSDSNVCNLTFALLGSK; Peptide with targeting and/or antimicrobial activity) | E. coli (C) | MRSA (C) | S. epidermidis (D) | S. pneumoniae (D) | G B | – | – | Organism, effect (morphology, biofilm and growth disruption) (microorganisms [1]; M. luteus): M. luteus (C); Organism, effect (morphology, biofilm and growth disruption) (microorganisms [1]; P. mirabilis): P. mirabilis (C); Organism, effect (morphology, biofilm and growth disruption) (microorganisms [1]; S. mutans): S. mutans (D)
PF-354 (FTFSKCRASNGRGFGTLWL; Peptide with targeting and/or antimicrobial activity) | – | – | – | – | G B | MRSA (H) | – | –
PF-042 (LLLSYFRYTGALLQSLF; Peptide with targeting and/or antimicrobial activity) | – | – | – | – | G B | MRSA (R) | S. epidermidis (D) | Organism, effect (microorganisms [1]; C. jeikeium): C. jeikeium (S); Organism, effect (microorganisms [1]; M. luteus): M. luteus (C)
PF-458 (ISLIIFIMLFVVALFKCITNYKHQS; Peptide with targeting and/or antimicrobial activity) | – | MRSA (M) | – | S. pneumoniae (M) | G B | – | – | Organism, effect (morphology, biofilm and growth disruption) (microorganisms [1]; P. aeruginosa): P. aeruginosa (H)
PF-526 (VLLLFIFQPFQKQLL-NH2) | E. coli (R) | MRSA (C) | S. epidermidis (C) | S. pneumoniae (R) | G B | – | – | Organism, effect (morphology, biofilm and growth disruption) (microorganisms [1]; C. albicans): C. albicans (C)
PF-603 (IDKLKKMNLQKLSYEVRISQDGKSIYARIK; Peptide with targeting and/or antimicrobial activity) | E. coli (M) | MRSA (M) | S. epidermidis (D) | S. pneumoniae (C) | G B | – | – | Organism, effect (morphology, biofilm and growth disruption) (microorganisms [1]; M. luteus): M. luteus (A)
PF-375 (MDSAKAQTMRTDWLAVSCLVASAYLRSMLA; Peptide with targeting and/or antimicrobial activity) | – | – | – | – | G B | MRSA (C) | S. epidermidis (C) | Organism, effect (microorganisms [1]; E. coli): E. coli (C); Organism, effect (microorganisms [1]; E. faecalis): E. faecalis (C)
PF-454 (MSVFVPVTNIFMFIMSPIFNVNLLHFKVYI; Peptide with targeting and/or antimicrobial activity) | E. coli (R) | MRSA (C) | S. epidermidis (C) | S. pneumoniae (R) | G B | – | – | Organism, effect (morphology, biofilm and growth disruption) (microorganisms [1]; E. faecalis): E. faecalis (C); Organism, effect (morphology, biofilm and growth disruption) (microorganisms [1]; P. aeruginosa): P. aeruginosa (H)
PF-386 (FTLTLITTIVAILNYKDKKK; Peptide with targeting and/or antimicrobial activity) | – | – | – | – | G B | MRSA (C) | S. epidermidis (C) | Organism, effect (microorganisms [1]; E. coli): E. coli (C); Organism, effect (microorganisms [1]; E. faecalis): E. faecalis (C)
PF-022 (MINELKNKNSGIMNNYVVTKESKL; Peptide with targeting and/or antimicrobial activity) | – | – | – | – | G B | MRSA (R) | S. epidermidis (D) | Organism, effect (microorganisms [1]; C. jeikeium): C. jeikeium (A); Organism, effect (microorganisms [1]; M. luteus): M. luteus (A)
PF-374 (HLFFVKGMFILCQKNQINDE; Peptide with targeting and/or antimicrobial activity) | – | – | – | – | G B | MRSA (M) | S. epidermidis (C) | Organism, effect (microorganisms [1]; E. coli): E. coli (C); Organism, effect (microorganisms [1]; E. faecalis): E. faecalis (C)
PF-124 (MADGQIAAIAKLHGVPVATRNIRHFQSFGVELINPWSG; Peptide with targeting and/or antimicrobial activity) | – | – | – | – | G B | – | S. epidermidis (C) | Organism, effect (microorganisms [1]; C. jeikeium): C. jeikeium (R)
